The source made the active and inactive calls.
Tests used:
[1] = biological target: T1, DNA repair and recombination protein RAD54-like (Homo sapiens, UniProt Q92698); experiment: RAD54 Holliday junction migration blockers – biochemical, fluorescence, cherry-picked samples, dose series, confirmation (AID 651657); type: functional
T1 sequence (Q92698 whole entry): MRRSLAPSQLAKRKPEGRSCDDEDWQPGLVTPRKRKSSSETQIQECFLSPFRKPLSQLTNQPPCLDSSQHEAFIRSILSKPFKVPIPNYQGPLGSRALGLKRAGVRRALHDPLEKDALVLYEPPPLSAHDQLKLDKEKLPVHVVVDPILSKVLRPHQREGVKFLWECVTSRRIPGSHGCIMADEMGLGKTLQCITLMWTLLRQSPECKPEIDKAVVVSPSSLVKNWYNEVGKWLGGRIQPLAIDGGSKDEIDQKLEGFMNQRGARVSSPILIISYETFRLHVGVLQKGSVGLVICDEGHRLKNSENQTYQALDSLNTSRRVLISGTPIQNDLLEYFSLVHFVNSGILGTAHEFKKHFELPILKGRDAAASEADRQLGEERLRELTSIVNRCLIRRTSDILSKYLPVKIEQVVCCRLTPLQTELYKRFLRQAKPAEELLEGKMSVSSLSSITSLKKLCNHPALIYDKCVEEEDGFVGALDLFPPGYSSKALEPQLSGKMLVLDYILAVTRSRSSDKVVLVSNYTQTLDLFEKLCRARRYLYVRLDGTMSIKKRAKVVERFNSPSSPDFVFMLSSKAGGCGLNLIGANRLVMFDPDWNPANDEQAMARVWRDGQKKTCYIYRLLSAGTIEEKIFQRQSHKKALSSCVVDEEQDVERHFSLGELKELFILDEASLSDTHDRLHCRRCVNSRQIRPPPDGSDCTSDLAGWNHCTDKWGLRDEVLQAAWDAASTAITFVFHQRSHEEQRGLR

[2] = Trypanosoma cruzi growth suppression in host cells – NIH3T3 host cells, beta-gal luminescence, confirmation (AID 2044); type: functional, cell-based;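 also: intracellular parasites grown in NIH/3T3 mouse fibroblasts as host cells; luminescent beta-galactosidase reporter signal from transgenic T. cruzi replicating inside host cells; inhibitors lower the luminescence signal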
[3] = NIH3T3 cell viability loss – ATP luminescence, mouse fibroblasts, counter-screen, dose response (AID 2010); type: functional, cell-based;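 also: cells exposed to compound for about 90 hours before reading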
CAAX prenyl protease 2 [4] = biological target: T2, CAAX prenyl protease 2 (Saccharomyces cerevisiae S288c, UniProt Q03530); type: biochemical
T2 sequence (Q03530 whole entry): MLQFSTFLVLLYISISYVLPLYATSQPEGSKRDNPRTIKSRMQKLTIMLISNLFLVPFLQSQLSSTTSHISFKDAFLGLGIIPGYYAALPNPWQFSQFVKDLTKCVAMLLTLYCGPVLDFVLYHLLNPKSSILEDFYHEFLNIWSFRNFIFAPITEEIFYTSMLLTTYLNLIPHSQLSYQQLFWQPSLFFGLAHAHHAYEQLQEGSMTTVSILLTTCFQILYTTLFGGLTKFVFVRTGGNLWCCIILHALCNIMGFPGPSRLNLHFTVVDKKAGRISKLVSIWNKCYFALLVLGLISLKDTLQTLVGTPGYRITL

INS1 = experiment: INS-1E survival protection against cytokine death – cell-based, luminescence, retest, dose response (AID 449756); type: functional; conditions: Rattus norvegicus;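 also: cell death triggered by IL-1 beta plus TNF-alpha plus IFN-gamma mixture; protective hits raise ATP signal compared with cytokine alone wells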
CAAX prenyl protease 2 [5] = biological target: T3, CAAX prenyl protease 2 (Homo sapiens, UniProt Q9Y256); experiment: inhibition of Ras-converting CAAX protease Rce1 – biochemical, yeast membranes, quenched-peptide fluorescence, cherry-pick, dose response (AID 588849)
T3 sequence (Q9Y256 whole entry): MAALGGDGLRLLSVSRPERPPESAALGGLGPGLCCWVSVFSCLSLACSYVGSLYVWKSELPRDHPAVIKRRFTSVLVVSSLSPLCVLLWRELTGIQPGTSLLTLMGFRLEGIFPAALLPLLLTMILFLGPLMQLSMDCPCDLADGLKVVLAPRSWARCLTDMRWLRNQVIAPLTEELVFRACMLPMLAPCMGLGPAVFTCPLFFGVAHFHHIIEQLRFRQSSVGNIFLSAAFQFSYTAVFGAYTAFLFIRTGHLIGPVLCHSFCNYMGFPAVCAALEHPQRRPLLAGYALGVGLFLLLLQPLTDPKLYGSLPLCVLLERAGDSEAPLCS

[6] = reduction of Shn3 3'UTR-driven luciferase in osteoblasts – cell-based, Clone20 osteoblasts, firefly luciferase, cherry-picked, dose response (AID 624132); type: functional;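 also: firefly luciferase luminescence from reporter carrying the Shn3 3'UTR in osteoblasts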
[7] = loss of viability in HepG2 cells – cell-based, CellTiter-Glo, cherry-picked, cytotoxicity control for Shn3 inhibitor project, dose response (AID 624134); type: functional
[8] = non-specific 3'UTR reporter inhibition in Clone20-Shn3RL – cell-based, Renilla luciferase, cherry-picked, counter-screen for Shn3 inhibitor project, dose response (AID 624133); type: functional
[9] = biological target: T4, DNA repair protein RAD52 homolog (Homo sapiens, UniProt P43351); type: functional, biochemical
T4 sequence (P43351 whole entry): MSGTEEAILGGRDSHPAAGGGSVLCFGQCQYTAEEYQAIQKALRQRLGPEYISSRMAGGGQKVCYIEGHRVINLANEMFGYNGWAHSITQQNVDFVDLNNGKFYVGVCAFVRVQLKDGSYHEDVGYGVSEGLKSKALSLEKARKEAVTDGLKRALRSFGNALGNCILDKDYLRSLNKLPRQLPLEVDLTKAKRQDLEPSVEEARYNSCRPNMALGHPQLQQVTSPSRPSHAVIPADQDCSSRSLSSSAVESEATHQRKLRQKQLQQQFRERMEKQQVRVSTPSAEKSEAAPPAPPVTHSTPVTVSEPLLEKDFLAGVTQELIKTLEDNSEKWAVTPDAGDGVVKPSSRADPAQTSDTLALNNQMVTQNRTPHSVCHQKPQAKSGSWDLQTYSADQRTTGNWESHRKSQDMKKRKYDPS

Paired box protein Pax-8 = Paired box protein Pax-8 (Homo sapiens, UniProt Q06710); experiment: PAX8 transcriptional activity inhibition in RMG-I – RMG-I cells, luciferase, cherry-pick, dose response (AID 687027); type: functional, cell-based;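 also: luciferase reporter driven by Pax8 target thyroperoxidase promoter measured by SteadyGlo luminescence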
Sequence of Paired box protein Pax-8 (Q06710 whole entry): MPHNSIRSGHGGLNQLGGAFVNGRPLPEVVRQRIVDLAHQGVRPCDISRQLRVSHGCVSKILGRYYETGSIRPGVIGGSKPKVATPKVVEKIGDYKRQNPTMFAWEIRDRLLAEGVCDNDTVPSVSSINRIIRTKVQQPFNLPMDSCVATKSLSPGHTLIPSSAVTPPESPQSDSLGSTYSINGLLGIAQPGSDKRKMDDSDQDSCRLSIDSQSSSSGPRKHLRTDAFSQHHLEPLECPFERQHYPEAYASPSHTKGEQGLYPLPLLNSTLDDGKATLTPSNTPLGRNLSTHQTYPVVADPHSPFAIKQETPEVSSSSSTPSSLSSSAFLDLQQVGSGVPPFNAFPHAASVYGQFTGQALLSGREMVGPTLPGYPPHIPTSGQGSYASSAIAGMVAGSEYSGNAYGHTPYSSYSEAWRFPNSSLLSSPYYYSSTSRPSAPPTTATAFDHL

cells [10] = type: functional, cell-based
cells [11] = type: functional, cell-based; remark: listed apart in the source
[12] = biological target: T5, Heat shock factor protein 1 (Mus musculus, UniProt P38532); experiment: enhancement of HSF1-driven luciferase signal – cell-based, NIH3T3, luminescence, dose retest, confirmation (AID 435004); type: functional;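 also: stress induced by proteasome inhibitor MG132 added 30 min after compound; luciferase reporter driven by HSF1 response element in NIH3T3 cells; actives raise luminescence as potentiators of the MG132 stress response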
T5 sequence (P38532 whole entry): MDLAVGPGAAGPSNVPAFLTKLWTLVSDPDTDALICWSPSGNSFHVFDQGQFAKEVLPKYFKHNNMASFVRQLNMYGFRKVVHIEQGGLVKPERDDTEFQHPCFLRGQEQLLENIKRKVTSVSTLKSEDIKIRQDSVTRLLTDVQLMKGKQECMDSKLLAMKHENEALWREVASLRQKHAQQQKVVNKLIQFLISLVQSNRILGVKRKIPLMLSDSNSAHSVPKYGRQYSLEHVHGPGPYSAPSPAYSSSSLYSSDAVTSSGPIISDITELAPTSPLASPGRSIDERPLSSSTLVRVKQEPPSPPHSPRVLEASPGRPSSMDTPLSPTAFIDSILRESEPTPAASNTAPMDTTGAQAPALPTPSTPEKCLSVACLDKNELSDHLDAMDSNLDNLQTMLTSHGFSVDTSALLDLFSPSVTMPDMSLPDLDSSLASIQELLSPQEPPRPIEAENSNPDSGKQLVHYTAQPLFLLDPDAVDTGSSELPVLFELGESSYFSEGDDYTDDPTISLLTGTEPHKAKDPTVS

[13] = biological target: Nuclear receptor subfamily 5 group A member 2 (Homo sapiens, UniProt O00482); type: functional, cell-based;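 also: HEK293T cells transfected with LRH-1 and a StAR promoter luciferase reporter; potency for inhibitors that lower LRH-1 driven reporter light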
Sequence of Nuclear receptor subfamily 5 group A member 2 (O00482 whole entry): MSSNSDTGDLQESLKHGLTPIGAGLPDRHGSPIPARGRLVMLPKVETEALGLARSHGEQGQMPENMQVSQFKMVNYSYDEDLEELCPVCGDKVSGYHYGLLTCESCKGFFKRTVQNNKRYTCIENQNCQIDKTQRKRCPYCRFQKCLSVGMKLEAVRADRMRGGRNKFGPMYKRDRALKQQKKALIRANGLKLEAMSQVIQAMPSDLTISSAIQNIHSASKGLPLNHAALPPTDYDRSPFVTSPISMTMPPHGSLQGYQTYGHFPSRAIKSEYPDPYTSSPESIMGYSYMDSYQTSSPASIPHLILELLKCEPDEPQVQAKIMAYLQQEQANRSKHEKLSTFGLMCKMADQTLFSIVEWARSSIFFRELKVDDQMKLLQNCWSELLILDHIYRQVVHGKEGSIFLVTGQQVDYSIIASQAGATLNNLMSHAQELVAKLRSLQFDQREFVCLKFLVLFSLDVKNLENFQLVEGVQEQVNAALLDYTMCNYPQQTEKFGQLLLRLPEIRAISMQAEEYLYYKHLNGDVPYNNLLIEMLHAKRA

Steroidogenic factor 1 = Steroidogenic factor 1 (Homo sapiens, UniProt Q13285); experiment: Counterscreen for inverse agonists of the liver receptor homolog-1 (LRH-1; NR5A2): Luminescence-based cell-based high throughput dose response assay to identify inverse agonists of the Steroidogenic Factor 1 Nuclear Receptor (SF1; NR5A1).; type: functional
Sequence of Steroidogenic factor 1 (Q13285 whole entry): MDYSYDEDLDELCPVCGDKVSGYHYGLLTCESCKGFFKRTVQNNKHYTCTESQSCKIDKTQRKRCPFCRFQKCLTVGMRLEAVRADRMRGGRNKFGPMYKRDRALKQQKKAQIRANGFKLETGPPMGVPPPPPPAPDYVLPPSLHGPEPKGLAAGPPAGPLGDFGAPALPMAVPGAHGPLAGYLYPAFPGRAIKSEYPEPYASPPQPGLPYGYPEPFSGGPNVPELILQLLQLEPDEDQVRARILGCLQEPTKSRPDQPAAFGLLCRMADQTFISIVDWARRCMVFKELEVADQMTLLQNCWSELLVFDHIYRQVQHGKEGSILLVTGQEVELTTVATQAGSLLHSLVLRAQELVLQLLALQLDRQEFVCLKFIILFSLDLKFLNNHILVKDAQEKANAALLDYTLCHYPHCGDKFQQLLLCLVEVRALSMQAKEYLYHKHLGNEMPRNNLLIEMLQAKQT

[14] = nonselective StAR promoter luciferase inhibitors – cell-based, luminescence, luciferase reporter, counter-screen for LRH-1 inverse agonist project, dose response (AID 651969); type: functional
[15] = viability loss in HeLa cells – cytotoxicity control for MgcRacGAP inhibitor project, dose response (AID 624300); type: functional
[16] = biological target: T6, Rac GTPase-activating protein 1 (Homo sapiens, UniProt Q9H0H5); experiment: blockers of MgcRacGAP-driven Rac1 GTP hydrolysis – biochemical, ADP Hunter fluorescence, primary and confirmatory, confirmation (AID 624330); type: functional
T6 sequence (Q9H0H5 whole entry): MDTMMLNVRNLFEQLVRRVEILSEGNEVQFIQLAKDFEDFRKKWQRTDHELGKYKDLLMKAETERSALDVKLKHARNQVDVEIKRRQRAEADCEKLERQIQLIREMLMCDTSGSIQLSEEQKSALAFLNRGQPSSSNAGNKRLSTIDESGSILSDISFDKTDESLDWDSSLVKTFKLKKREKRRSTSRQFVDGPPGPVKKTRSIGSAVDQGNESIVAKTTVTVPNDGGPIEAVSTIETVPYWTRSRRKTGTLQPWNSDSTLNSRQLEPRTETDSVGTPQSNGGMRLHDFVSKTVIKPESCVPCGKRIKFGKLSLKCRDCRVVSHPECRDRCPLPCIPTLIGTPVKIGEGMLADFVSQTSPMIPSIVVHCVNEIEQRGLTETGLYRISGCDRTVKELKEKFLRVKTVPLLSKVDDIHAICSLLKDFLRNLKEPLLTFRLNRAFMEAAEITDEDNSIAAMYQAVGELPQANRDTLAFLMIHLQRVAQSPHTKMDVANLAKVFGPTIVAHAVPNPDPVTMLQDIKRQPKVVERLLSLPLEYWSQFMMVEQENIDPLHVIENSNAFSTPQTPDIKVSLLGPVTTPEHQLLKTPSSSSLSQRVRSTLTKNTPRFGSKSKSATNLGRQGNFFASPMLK

[17] = luciferase reporter signal suppression in cells – H4 neuroglioma cells, luminescence, dose response (AID 1990); type: functional, cell-based
[18] = Luminescence Cell-Based Dose Response HTS to Identify Inhibitors of 5'UTR Stem-Loop Driven Prion Protein mRNA Translation in H4 Neuroglioblastoma Cells. [Related pubchem assays: 1827 (Project Summary), 1813 (Primary HTS)]; type: functional
[19] = alpha-synuclein stem-loop luciferase translation blockers – H4 neuroglioma cells, luminescence, confirmation (AID 1988); type: functional, cell-based
[20] = activation of miR-122 Renilla sensor silencing – cell-based, Huh7 psiCHECK-miR122, Renilla luciferase, cherry-picked, dose response (AID 651956); type: functional;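 also: huh7 hepatoma cells stably carrying a psiCHECK-2 miR-122 sensor plasmid; renilla luciferase signal reporting endogenous miR-122 activity after 48 h compound exposure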
[21] = general mammalian cell viability loss – inhibitor set, cherry-pick, set 2, cytotoxicity control for miR-122 modulator project, dose response (AID 720697); type: functional, cell-based
[22] = A2780 cell killing – plate reader, dry powder samples, cytotoxicity control, dose response (AID 743046); type: functional, cell-based

CCN(CC)CC(=O)Nc1cc(N(C)C)nc2ccccc12
AC50 [1]: 26.9 µM (active)

C[n+]1c2n(c3ccccc31)N=C(c1cc(C(C)(C)C)c(O)c(C(C)(C)C)c1)CS2
EC50 [2]: 0.496 µM (active)
EC50 [3]: > 60 µM (not active)
AC50 (CAAX prenyl protease 2 [4]): 9.21 µM (active)
AC50 (INS1): 0.452 µM (active)
AC50 (CAAX prenyl protease 2 [5]): > 100 µM (inactive)
AC50 [6]: 5.92 µM (active)
AC50 [7]: 13 µM (active)
AC50 [8]: 7.16 µM (active)
AC50 [9]: 13.4 µM (active)
AC50 (Paired box protein Pax-8): 0.906 µM (active)

COc1ccc(OCC(O)CN2CCC(CN3C(=O)c4cccc5cccc(c45)C3=O)CC2)cc1 (configuration not stated)
AC50 [9]: 8.15 µM (active)

Cc1ccc2c(c1)c1nc3ccccc3nc1n2CCN1CCOCC1
AC50 [1]: 16.6 µM (active)

O=C1CCCN2N=C(SCC(=O)Nc3ccc(Br)cc3)SC2=N1
EC50 (cells [10]): > 350 µM (not active)
EC50 (cells [11]): > 350 µM (not active)
EC50 [12]: > 260 µM (inactive)
IC50 [13]: 71.6 µM (inactive)
IC50 (Steroidogenic factor 1): 12 µM (inactive)
IC50 [14]: 35.9 µM (inactive)

CC(C)N(CCNCC(O)COc1ccc(C(C)(C)c2ccccc2)cc1)C(C)C (configuration not stated)
CC50 [15]: 91.8 µM (active)
IC50 [16]: 204 µM (active)

COc1ccc(C(O)(CC(C)C)C(CN2CCOCC2)c2ccccc2)cc1 (configuration not stated)
EC50 [17]: 10.6 µM (active)
EC50 [18]: > 120 µM (not active)
EC50 [19]: 10.2 µM (active)
AC50 [20]: 49 µM (active)
AC50 [21]: 4.58 µM (active)

CCn1c(=O)n(CC)c2cc(N3CCCC3)c(NC(=O)c3cccc(Cl)c3)cc21
CC50 [15]: 100 µM (active)

CCN1CCN(c2nc(Nc3ccc(NC(C)=O)cc3)nc(Nc3ccc(NC(C)=O)cc3)n2)CC1
AC50 [9]: 6.27 µM (active)

CCOc1ccc(NC(=O)CSc2nccn(-c3ccc4c(c3)OCCO4)c2=O)cc1
IC50 [13]: 2.49 µM (active)
IC50 (Steroidogenic factor 1): 2.46 µM (active)
IC50 [14]: 35.9 µM (inactive)

OCCN1CCN(c2ncnc3sc(-c4ccccc4)cc23)CC1
EC50 [2]: 0.721 µM (active)
EC50 [3]: > 60 µM (not active)
AC50 [1]: 24.8 µM (active)

Cn1cc(Cl)c(C(=O)OCC(=O)Nc2ccc(S(N)(=O)=O)cc2)n1
IC50 [13]: 0.45 µM (active)
IC50 (Steroidogenic factor 1): 1.11 µM (active)
IC50 [14]: 35.9 µM (inactive)

C[C@@H]1CN([C@H](C)CO)C(=O)c2cc(-c3cncnc3)cnc2O[C@H]1CN(C)Cc1ccc(Oc2ccccc2)cc1
AC50 [20]: 25.7 µM (active)

Cc1noc(C)c1S(=O)(=O)Nc1ccc2c(c1)C(=O)N([C@@H](C)CO)C[C@H](C)[C@H](CN(C)C(=O)Nc1ccc(C(F)(F)F)cc1)OCCCC[C@H](C)O2
AC50 (Paired box protein Pax-8): 14.2 µM (active)
AC50 [22]: 4.83 µM (active)

Cc1cc(-c2ccccc2)nc(N/N=C/c2ccc(O)cc2)n1
CC50 [15]: 87 µM (active)
IC50 [16]: 18.2 µM (active)

Source: ChEMBL document CHEMBL1201862, “PubChem BioAssay data set” (2004)
